Experiment [1] addresses Serine/threonine-protein kinase 32A (Homo sapiens) (UniProt Q8WU08). Briefly: Inhibition of YANK1 (unknown origin) assessed as residual activity at 100 nM by KINOMEscan analysis relative to control.
Experiment [2] has as its target Mitogen-activated protein kinase kinase kinase 4 (Homo sapiens) (UniProt Q9Y6R4). Briefly: Inhibition of MAP3K4 (unknown origin) assessed as residual activity at 100 nM by KINOMEscan analysis relative to control.
The target in experiment [3] is T1, Serine/threonine-protein kinase ULK3 (Homo sapiens) (UniProt Q6PHR2).
T1 sequence (whole entry): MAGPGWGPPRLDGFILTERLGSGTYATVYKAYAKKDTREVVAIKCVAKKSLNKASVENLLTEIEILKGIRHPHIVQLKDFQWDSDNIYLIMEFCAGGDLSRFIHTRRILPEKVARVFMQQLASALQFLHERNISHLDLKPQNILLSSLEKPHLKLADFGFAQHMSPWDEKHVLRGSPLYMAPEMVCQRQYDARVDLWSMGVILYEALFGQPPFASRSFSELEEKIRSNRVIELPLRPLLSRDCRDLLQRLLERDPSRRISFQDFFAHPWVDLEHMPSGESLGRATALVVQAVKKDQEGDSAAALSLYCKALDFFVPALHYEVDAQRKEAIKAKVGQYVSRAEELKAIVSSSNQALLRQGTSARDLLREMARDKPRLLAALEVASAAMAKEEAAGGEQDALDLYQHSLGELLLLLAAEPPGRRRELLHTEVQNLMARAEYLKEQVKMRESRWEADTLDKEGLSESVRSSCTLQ
Briefly: Inhibition of ULK3 (unknown origin) assessed as residual activity at 100 nM by KINOMEscan analysis relative to control.

Experiment [4] has as its target Tyrosine-protein kinase ABL1 (Homo sapiens) (UniProt P00519). Briefly: Inhibition of phosphorylated ABL1 (unknown origin) assessed as residual activity at 100 nM by KINOMEscan analysis relative to control.
Experiment [5] has as its system Epidermal growth factor receptor (Homo sapiens), P00533 [UNDEFINED MUTATION]. Briefly: Inhibition of EGFR L747-E749del/A750P mutant (unknown origin) assessed as residual activity at 100 nM by KINOMEscan analysis relative to control.
The target in experiment [6] is Serine/threonine-protein kinase OSR1 (Homo sapiens) (UniProt O95747). Briefly: Inhibition of OSR1 (unknown origin) assessed as residual activity at 100 nM by KINOMEscan analysis relative to control.
The target in experiment [7] is Mitogen-activated protein kinase kinase kinase 9 (Homo sapiens) (UniProt P80192). Briefly: Inhibition of MLK1 (unknown origin) assessed as residual activity at 100 nM by KINOMEscan analysis relative to control.
Mitogen-activated protein kinase kinase kinase 9 (Homo sapiens), sequence (P80192 whole entry, looked up): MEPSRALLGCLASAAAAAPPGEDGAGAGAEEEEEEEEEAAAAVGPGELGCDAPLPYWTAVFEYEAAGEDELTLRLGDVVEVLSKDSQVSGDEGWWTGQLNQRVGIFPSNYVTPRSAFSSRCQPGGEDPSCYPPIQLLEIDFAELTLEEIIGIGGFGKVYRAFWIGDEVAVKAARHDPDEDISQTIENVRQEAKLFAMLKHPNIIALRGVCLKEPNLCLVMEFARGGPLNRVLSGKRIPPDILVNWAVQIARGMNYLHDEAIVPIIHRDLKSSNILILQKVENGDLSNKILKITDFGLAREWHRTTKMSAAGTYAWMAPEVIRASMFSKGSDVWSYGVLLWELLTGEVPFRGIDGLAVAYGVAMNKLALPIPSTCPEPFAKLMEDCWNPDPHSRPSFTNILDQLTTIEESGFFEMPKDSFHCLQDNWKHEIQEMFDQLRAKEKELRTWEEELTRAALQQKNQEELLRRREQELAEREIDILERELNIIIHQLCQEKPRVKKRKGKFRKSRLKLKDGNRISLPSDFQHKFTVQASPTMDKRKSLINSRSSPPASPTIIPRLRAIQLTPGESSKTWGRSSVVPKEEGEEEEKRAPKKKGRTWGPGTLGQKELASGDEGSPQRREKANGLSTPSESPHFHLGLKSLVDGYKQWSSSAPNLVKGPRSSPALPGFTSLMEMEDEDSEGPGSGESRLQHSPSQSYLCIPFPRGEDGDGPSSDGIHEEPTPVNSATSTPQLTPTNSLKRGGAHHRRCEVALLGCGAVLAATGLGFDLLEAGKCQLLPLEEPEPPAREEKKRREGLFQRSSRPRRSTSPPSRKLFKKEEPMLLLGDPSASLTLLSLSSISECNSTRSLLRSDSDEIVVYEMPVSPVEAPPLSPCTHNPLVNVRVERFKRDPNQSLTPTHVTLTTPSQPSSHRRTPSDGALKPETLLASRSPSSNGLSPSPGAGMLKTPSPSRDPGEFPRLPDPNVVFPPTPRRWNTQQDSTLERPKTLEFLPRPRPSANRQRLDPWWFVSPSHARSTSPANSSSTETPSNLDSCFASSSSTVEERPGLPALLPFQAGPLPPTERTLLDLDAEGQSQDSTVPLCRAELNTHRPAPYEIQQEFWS
Experiment [8] deals with AP2-associated protein kinase 1 (Homo sapiens) (UniProt Q2M2I8). Briefly: Inhibition of AAK1 (unknown origin) assessed as residual activity at 100 nM by KINOMEscan analysis relative to control.
AP2-associated protein kinase 1 (Homo sapiens), sequence (Q2M2I8 whole entry, looked up): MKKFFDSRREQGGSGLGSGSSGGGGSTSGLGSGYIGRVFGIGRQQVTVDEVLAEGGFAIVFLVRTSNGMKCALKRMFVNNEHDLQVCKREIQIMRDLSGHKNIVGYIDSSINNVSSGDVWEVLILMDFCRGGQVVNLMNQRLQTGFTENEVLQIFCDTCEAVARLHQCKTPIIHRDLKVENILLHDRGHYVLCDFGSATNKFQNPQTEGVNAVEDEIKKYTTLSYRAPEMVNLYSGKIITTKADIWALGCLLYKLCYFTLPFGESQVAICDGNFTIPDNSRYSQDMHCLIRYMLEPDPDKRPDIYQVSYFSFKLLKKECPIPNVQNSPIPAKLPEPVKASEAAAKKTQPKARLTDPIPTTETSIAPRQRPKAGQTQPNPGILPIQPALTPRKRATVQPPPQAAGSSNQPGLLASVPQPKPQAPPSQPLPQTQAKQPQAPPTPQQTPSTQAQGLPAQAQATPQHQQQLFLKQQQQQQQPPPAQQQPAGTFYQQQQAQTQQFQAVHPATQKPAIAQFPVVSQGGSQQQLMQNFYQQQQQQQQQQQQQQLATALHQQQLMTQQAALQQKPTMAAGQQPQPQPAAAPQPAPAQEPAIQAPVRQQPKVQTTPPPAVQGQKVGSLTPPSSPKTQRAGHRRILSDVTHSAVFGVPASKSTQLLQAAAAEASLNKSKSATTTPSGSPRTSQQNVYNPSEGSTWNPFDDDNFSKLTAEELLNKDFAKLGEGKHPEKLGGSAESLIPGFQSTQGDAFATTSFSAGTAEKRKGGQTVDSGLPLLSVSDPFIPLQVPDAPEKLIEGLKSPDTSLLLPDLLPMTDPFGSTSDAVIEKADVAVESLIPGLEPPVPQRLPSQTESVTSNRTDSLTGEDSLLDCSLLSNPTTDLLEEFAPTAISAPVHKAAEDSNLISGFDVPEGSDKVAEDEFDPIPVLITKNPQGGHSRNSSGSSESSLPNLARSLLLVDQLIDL
Experiment [9] deals with T2, Serine/threonine-protein kinase LATS1 (Homo sapiens) (UniProt O95835).
T2 sequence (whole entry): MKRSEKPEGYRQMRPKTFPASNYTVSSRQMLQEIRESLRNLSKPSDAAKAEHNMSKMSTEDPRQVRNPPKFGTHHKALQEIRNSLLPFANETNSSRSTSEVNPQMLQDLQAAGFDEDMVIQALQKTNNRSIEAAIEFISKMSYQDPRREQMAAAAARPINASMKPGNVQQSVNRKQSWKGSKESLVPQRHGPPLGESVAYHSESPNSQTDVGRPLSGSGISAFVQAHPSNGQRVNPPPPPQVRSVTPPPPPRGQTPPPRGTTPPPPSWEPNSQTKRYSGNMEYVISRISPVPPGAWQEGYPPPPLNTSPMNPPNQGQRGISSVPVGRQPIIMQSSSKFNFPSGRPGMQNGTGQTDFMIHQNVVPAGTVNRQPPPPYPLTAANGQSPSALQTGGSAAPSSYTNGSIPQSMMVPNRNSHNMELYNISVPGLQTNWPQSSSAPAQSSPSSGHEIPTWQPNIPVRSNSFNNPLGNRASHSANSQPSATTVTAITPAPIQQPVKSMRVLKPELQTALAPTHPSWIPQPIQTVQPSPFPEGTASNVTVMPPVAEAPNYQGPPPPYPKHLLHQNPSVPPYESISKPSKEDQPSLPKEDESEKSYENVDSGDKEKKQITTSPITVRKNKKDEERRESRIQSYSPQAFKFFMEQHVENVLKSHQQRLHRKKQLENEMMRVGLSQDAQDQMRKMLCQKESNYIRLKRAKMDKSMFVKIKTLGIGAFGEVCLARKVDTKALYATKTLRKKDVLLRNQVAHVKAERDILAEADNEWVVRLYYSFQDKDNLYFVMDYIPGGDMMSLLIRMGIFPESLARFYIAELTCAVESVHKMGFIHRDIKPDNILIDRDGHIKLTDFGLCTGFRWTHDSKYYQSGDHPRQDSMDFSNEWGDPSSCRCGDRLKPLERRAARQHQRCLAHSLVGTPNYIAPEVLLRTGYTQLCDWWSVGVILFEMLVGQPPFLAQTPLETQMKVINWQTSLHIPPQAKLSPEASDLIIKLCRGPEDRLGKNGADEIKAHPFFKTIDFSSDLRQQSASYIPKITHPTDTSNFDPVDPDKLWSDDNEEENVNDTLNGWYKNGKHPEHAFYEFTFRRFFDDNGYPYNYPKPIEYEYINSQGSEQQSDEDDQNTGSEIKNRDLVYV
Briefly: Inhibition of LATS1 (unknown origin) assessed as residual activity at 100 nM by KINOMEscan analysis relative to control.

This is an account of results in ChEMBL document CHEMBL5678818, “Discovery of potent SOS1 inhibitors that block RAS activation via disruption of the RAS-SOS1 interaction” (Proc Natl Acad Sci U S A, 2019).

Epidermal growth factor receptor (Homo sapiens), P00533 [UNDEFINED MUTATION], sequence (P00533 whole entry, looked up, stated change not applied): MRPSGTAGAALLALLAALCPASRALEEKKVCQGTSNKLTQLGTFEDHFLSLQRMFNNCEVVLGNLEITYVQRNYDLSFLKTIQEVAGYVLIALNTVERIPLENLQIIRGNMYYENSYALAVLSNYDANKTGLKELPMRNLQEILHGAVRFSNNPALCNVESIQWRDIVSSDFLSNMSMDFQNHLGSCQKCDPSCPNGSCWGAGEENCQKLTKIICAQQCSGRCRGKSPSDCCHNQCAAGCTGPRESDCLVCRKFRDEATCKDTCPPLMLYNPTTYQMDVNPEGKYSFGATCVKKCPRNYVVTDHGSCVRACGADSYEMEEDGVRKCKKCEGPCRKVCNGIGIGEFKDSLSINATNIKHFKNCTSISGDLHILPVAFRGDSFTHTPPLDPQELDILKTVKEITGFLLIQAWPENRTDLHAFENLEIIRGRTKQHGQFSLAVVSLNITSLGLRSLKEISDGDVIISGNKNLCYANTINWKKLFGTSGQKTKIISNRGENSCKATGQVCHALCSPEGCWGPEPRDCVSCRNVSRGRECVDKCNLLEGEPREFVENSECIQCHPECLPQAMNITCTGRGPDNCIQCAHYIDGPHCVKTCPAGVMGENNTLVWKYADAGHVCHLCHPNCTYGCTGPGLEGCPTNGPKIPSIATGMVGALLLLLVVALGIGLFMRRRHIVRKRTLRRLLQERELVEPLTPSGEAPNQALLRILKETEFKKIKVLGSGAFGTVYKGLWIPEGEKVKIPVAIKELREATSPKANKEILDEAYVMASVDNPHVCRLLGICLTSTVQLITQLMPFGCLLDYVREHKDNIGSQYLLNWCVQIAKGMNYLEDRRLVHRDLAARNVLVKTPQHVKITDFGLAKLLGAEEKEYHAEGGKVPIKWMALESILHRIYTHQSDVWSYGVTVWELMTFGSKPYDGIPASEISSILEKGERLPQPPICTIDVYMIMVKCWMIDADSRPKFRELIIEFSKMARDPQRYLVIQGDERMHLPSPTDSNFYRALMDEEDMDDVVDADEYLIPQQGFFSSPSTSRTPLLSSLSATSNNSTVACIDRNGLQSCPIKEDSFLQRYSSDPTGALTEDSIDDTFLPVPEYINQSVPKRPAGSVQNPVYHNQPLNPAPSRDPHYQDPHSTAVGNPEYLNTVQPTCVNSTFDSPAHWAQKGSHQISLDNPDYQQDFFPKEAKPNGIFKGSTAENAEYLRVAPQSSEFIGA
Tyrosine-protein kinase ABL1 (Homo sapiens), sequence (P00519 whole entry): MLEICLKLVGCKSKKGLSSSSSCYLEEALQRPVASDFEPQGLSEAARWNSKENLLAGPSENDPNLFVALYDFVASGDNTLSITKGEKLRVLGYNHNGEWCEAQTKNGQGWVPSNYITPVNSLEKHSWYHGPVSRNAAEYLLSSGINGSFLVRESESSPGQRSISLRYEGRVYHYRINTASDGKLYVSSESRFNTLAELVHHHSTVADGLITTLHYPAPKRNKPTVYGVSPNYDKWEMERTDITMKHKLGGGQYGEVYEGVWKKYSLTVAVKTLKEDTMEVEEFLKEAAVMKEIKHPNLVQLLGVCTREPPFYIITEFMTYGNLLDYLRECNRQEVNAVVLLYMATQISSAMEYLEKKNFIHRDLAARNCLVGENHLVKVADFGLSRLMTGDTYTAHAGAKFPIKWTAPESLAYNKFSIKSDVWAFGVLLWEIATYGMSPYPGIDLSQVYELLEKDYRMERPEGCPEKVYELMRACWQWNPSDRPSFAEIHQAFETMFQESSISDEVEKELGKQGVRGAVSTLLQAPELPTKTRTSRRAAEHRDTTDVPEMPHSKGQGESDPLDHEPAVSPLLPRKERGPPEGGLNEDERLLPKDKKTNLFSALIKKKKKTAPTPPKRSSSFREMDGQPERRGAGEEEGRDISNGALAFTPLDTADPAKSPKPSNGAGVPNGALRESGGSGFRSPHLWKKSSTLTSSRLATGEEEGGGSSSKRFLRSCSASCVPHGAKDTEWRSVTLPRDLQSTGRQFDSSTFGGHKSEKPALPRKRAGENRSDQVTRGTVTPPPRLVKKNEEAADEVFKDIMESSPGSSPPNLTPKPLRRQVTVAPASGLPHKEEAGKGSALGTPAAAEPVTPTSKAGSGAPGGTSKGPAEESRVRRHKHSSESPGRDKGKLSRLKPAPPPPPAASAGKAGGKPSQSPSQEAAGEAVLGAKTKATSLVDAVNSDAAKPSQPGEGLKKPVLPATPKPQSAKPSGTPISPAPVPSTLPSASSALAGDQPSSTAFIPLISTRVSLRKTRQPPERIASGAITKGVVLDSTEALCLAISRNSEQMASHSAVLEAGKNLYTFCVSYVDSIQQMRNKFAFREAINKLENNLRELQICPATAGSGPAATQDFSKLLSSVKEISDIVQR
Serine/threonine-protein kinase 32A (Homo sapiens), sequence (Q8WU08 whole entry): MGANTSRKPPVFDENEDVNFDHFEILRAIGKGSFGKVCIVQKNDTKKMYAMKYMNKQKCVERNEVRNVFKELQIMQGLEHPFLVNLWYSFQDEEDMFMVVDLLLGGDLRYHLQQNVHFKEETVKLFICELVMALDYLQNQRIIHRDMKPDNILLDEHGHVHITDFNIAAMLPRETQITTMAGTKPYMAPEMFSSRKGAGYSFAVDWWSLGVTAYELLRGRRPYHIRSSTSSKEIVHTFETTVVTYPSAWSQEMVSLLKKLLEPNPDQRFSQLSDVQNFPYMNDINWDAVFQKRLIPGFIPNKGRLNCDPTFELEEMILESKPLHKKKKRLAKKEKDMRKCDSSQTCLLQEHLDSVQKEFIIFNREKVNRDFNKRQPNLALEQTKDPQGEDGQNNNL

For the molecule `COc1cc2ncnc(N[C@H](C)c3cccc4ccccc34)c2cc1OC`, the Activity stood at 61% in [1]; 68% in experiment [2]; 89% in experiment [3]; 93% in [4]; 92% in experiment [5]; 89% in experiment [6]. The Activity in [7] turned out to be 100%; in experiment [8], 74%; in [9], 97%.
